In PubChem BioAssay AID1919010 (Molecular Pharmacology Branch, DTP, NCI, 2023):

System: Hs578T complex spheroid growth, percent test/control
Experiment: Anticancer human tumor Hs578T cell line growth inhibition [AhR];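 also: luminescent viability signal as a proxy for spheroid growth; spheroids exposed to agents for one week after three days of growth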
Conditions: for IC50: curve of first compound; for viability, T/C: stronger effect = lower value
Method in brief: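 Complex tumor spheroids co-cultured with HUVEC and human MSC stroma; AhR antagonists tested in combination with standard-of-care and investigational agents. Top concentration at or near clinical Cmax (else 10 microM), half-log dilutions; growth expressed as percent test/control.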

[1] = second compound 0.1 µM, first compound 0.00949 µM
[2] = second compound 0.1 µM, first compound 0.03 µM
[3] = second compound 0.1 µM, first compound 0.0949 µM
[4] = second compound 0.1 µM, first compound 0.3 µM
[5] = second compound 0.316 µM, first compound 0.00949 µM
[6] = second compound 0.316 µM, first compound 0.03 µM
[7] = second compound 0.316 µM, first compound 0.0949 µM
[8] = second compound 0.316 µM, first compound 0.3 µM
[9] = second compound 1 µM, first compound 0.00949 µM
[10] = second compound 1 µM, first compound 0.03 µM
[11] = second compound 1 µM, first compound 0.0949 µM
[12] = second compound 1 µM, first compound 0.3 µM
[13] = second compound 3.16 µM, first compound 0.00949 µM
[14] = second compound 3.16 µM, first compound 0.03 µM
[15] = second compound 3.16 µM, first compound 0.0949 µM
[16] = second compound 3.16 µM, first compound 0.3 µM
[17] = second compound 10 µM, first compound 0.00949 µM
[18] = second compound 10 µM, first compound 0.03 µM
[19] = second compound 10 µM, first compound 0.0949 µM
[20] = second compound 10 µM, first compound 0.3 µM

## Nc1ncn(C2CC(O)C(CO)S2)c(=O)n1 (stereo not given) + Cc1cncc(-c2nc(NCCc3c[nH]c4ccccc34)c3ncn(C(C)C)c3n2)c1
Second compound 0.1 µM
  IC50: > 0.3 µM
Second compound 0.316 µM
  IC50: > 0.3 µM
Second compound 1 µM
  IC50: > 0.3 µM
Second compound 3.16 µM
  IC50: > 0.3 µM
Second compound 10 µM
  IC50: < 0.000949 µM
Second compound 0.1 µM, first compound 0.000949 µM
  viability, T/C: 110%
Second compound 0.1 µM, first compound 0.003 µM
  viability, T/C: 119%
[1]
  viability, T/C: 117%
[2]
  viability, T/C: 108%
[3]
  viability, T/C: 104%
[4]
  viability, T/C: 92.9%
Second compound 0.316 µM, first compound 0.000949 µM
  viability, T/C: 116%
Second compound 0.316 µM, first compound 0.003 µM
  viability, T/C: 114%
[5]
  viability, T/C: 115%
[6]
  viability, T/C: 107%
[7]
  viability, T/C: 108%
[8]
  viability, T/C: 93.9%
Second compound 1 µM, first compound 0.000949 µM
  viability, T/C: 92.2%
Second compound 1 µM, first compound 0.003 µM
  viability, T/C: 95.3%
[9]
  viability, T/C: 91%
[10]
  viability, T/C: 82.4%
[11]
  viability, T/C: 88.8%
[12]
  viability, T/C: 86.4%
Second compound 3.16 µM, first compound 0.000949 µM
  viability, T/C: 46.2%
Second compound 3.16 µM, first compound 0.003 µM
  viability, T/C: 54.2%
[13]
  viability, T/C: 55.5%
[14]
  viability, T/C: 49.4%
[15]
  viability, T/C: 47%
[16]
  viability, T/C: 55%
Second compound 10 µM, first compound 0.000949 µM
  viability, T/C: 14.1%
Second compound 10 µM, first compound 0.003 µM
  viability, T/C: 7.61%
[17]
  viability, T/C: 7.86%
[18]
  viability, T/C: 8.27%
[19]
  viability, T/C: 7.59%
[20]
  viability, T/C: 7.47%

## CCN(c1cc(-c2ccc(CN3CCOCC3)cc2)cc(C(=O)NCc2c(C)cc(C)[nH]c2=O)c1C)C1CCOCC1 + Cc1ccccc1N=Nc1ccc(NC(=O)c2ccnn2C)c(C)c1
Second compound 0.1 µM
  IC50: > 3 µM
Second compound 0.316 µM
  IC50: > 3 µM
Second compound 1 µM
  IC50: > 3 µM
Second compound 3.16 µM
  IC50: > 3 µM
Second compound 10 µM
  IC50: > 3 µM
[1]
  viability, T/C: 97.5%
[2]
  viability, T/C: 103%
[3]
  viability, T/C: 94.1%
[4]
  viability, T/C: 99.4%
Second compound 0.1 µM, first compound 0.949 µM
  viability, T/C: 94.4%
Second compound 0.1 µM, first compound 3 µM
  viability, T/C: 93%
[5]
  viability, T/C: 106%
[6]
  viability, T/C: 107%
[7]
  viability, T/C: 104%
[8]
  viability, T/C: 111%
Second compound 0.316 µM, first compound 0.949 µM
  viability, T/C: 108%
Second compound 0.316 µM, first compound 3 µM
  viability, T/C: 93.8%
[9]
  viability, T/C: 99.9%
[10]
  viability, T/C: 106%
[11]
  viability, T/C: 104%
[12]
  viability, T/C: 99.7%
Second compound 1 µM, first compound 0.949 µM
  viability, T/C: 102%
Second compound 1 µM, first compound 3 µM
  viability, T/C: 94.9%
[13]
  viability, T/C: 95.3%
[14]
  viability, T/C: 88%
[15]
  viability, T/C: 98.6%
[16]
  viability, T/C: 83.2%
Second compound 3.16 µM, first compound 0.949 µM
  viability, T/C: 89.8%
Second compound 3.16 µM, first compound 3 µM
  viability, T/C: 82.7%
[17]
  viability, T/C: 63.9%
[18]
  viability, T/C: 67.5%
[19]
  viability, T/C: 74%
[20]
  viability, T/C: 66.8%
Second compound 10 µM, first compound 0.949 µM
  viability, T/C: 64%
Second compound 10 µM, first compound 3 µM
  viability, T/C: 67%

## COc1cc(Nc2ncc3c(n2)-c2ccc(Cl)cc2C(c2c(F)cccc2OC)=NC3)ccc1C(=O)O + CC(CO)NC(=O)c1cc(-c2ccc(Cl)cc2)nn(-c2cnn(C)c2)c1=O
Second compound 0.1 µM
  IC50: > 10 µM
Second compound 0.316 µM
  IC50: > 10 µM
Second compound 1 µM
  IC50: > 10 µM
Second compound 3.16 µM
  IC50: > 10 µM
Second compound 10 µM
  IC50: > 10 µM
Second compound 0.1 µM, first compound 0.0316 µM
  viability, T/C: 99.8%
Second compound 0.1 µM, first compound 0.1 µM
  viability, T/C: 92.3%
Second compound 0.1 µM, first compound 0.316 µM
  viability, T/C: 104%
Second compound 0.1 µM, first compound 1 µM
  viability, T/C: 99.1%
Second compound 0.1 µM, first compound 3.16 µM
  viability, T/C: 93.3%
Second compound 0.1 µM, first compound 10 µM
  viability, T/C: 59.6%
Second compound 0.316 µM, first compound 0.0316 µM
  viability, T/C: 94.6%
Second compound 0.316 µM, first compound 0.1 µM
  viability, T/C: 96%
Second compound 0.316 µM, first compound 0.316 µM
  viability, T/C: 100%
Second compound 0.316 µM, first compound 1 µM
  viability, T/C: 93.4%
Second compound 0.316 µM, first compound 3.16 µM
  viability, T/C: 84.4%
Second compound 0.316 µM, first compound 10 µM
  viability, T/C: 51.8%
Second compound 1 µM, first compound 0.0316 µM
  viability, T/C: 102%
Second compound 1 µM, first compound 0.1 µM
  viability, T/C: 102%
Second compound 1 µM, first compound 0.316 µM
  viability, T/C: 114%
Second compound 1 µM, first compound 1 µM
  viability, T/C: 99%
Second compound 1 µM, first compound 3.16 µM
  viability, T/C: 85.3%
Second compound 1 µM, first compound 10 µM
  viability, T/C: 68.6%
Second compound 3.16 µM, first compound 0.0316 µM
  viability, T/C: 95.5%
Second compound 3.16 µM, first compound 0.1 µM
  viability, T/C: 91.6%
Second compound 3.16 µM, first compound 0.316 µM
  viability, T/C: 101%
Second compound 3.16 µM, first compound 1 µM
  viability, T/C: 102%
Second compound 3.16 µM, first compound 3.16 µM
  viability, T/C: 84.7%
Second compound 3.16 µM, first compound 10 µM
  viability, T/C: 67.3%
Second compound 10 µM, first compound 0.0316 µM
  viability, T/C: 84.9%
Second compound 10 µM, first compound 0.1 µM
  viability, T/C: 84%
Second compound 10 µM, first compound 0.316 µM
  viability, T/C: 93.6%
Second compound 10 µM, first compound 1 µM
  viability, T/C: 97.8%
Second compound 10 µM, first compound 3.16 µM
  viability, T/C: 83.5%
Second compound 10 µM, first compound 10 µM
  viability, T/C: 72.3%
